The values that follow are results of earlier work, collected in patent publication US20070141182A1, “Combination of multiple nonteroidal antiinflammatory drugs and muscle relaxants for local treatment of musculoskeletal pain” (priority 2005, published 2007).

The subject of data set [1] is COX-1 and COX-2.
For data set [2] the following is noted: compared with more traditional NSAIDs.
The conditions of data set [3]: for patient ratings of efficacy versus placebo: topical commercial forms.
For data set [4] the following is noted: 75 mg/ml in the donor gel, human skin.
The conditions of data set [5]: dissolved in lecithin microemulsion gel.
The conditions of data set [6]: topical gel, 6 patients.
For data set [7] the following is noted: 2.5% gel daily, 10 healthy subjects.
The test system of data set [8] is prostaglandins.

Regarding `CC(=O)Oc1ccccc1C(=O)O` [ASA, acetylsalicylic acid], the “decrease in pain (VAS)” value (oral ASA 500 mg) was 15.4%. Further, the “patients with a poor response” value (oral administration) is listed as 79%.

Turning to `CC(C(=O)O)c1ccc(-c2ccccc2)c(F)c1` (centres unmarked) [Flurbiprofen, flurbiprofen], the “COX-1 / COX-2 isoform selectivity of inhibition” value in data set [1] was “inhibit both COX-1 and COX-2 equally”.

For the compound `COc1ccc2cc(CCC(C)=O)ccc2c1` [Nabumetone], in [2], the “incidence of gastric lesions” value was “lower incidence of gastric lesions”. Also, the “COX-1 / COX-2 isoform selectivity of inhibition” value in data set [1] is listed as “more selectively inhibit COX-2”.

As to `CN1C(C(=O)Nc2ccccn2)=C(O)c2ccccc2S1(=O)=O` [Piroxicam, piroxicam], the “COX-1 / COX-2 isoform selectivity of inhibition” value in data set [1] is “preferentially inhibit COX-1”. Further, the “patient ratings of efficacy versus placebo” value in [3] is reported as “superior efficacy”.

As for `CC(C)(C)NCC(O)c1cc(Br)no1` (centres unmarked) [broxaterol], the “flux through the skin” value in [4] is on record as 47 μg.h^−1 cm^−2.

As to `O=C(O)Cc1ccccc1Nc1c(Cl)cccc1Cl` [diclofenac], in data set [5], the steady-state flux entry is “about 1 μg h^−1 cm^−2”.

For the compound `CCc1cccc2c3c([nH]c12)C(CC)(CC(=O)O)OCC3` (centres unmarked) [etodolac], the “incidence of gastric lesions” value in [2] was “lower incidence of gastric lesions”. The “COX-1 / COX-2 isoform selectivity of inhibition” value in [1] is recorded as “more selectively inhibit COX-2”.

Consider `CC(C)Cc1ccc(C(C)C(=O)O)cc1` (centres unmarked) [ibuprofen], for which the “COX-1 / COX-2 isoform selectivity of inhibition” value in [1] is “inhibit both COX-1 and COX-2 equally”. Also, the “patient ratings of efficacy versus placebo” value in data set [3] is given as “superior efficacy”.

Turning to `COc1ccc2c(c1)c(CC(=O)O)c(C)n2C(=O)c1ccc(Cl)cc1` [indomethacin], in data set [5], the steady-state flux entry was “about 1 μg h^−1 cm^−2”. For the same compound, in data set [1], the “COX-1 / COX-2 isoform selectivity of inhibition” value is recorded as “preferentially inhibit COX-1”. Moreover, in data set [3] (human, in vivo, po), the “efficacy of topical versus oral administration” value is “as effective as therapeutic doses of oral indomethacin”. Besides, in data set [3], the “patient ratings of efficacy versus placebo” value is listed as “superior efficacy”.

Consider `CC(C(=O)O)c1cccc(C(=O)c2ccccc2)c1` (centres unmarked) [ketoprofen], for which, in [6], the “ketoprofen concentration in capsular sample” value is 2.35 µg/g, the “ketoprofen concentration in intra-articular adipose tissue” value is 4.7 µg/g and the “ketoprofen concentration in synovial fluid” value was 1.4 µg/g. Also, the “plasma concentrations as share of the daily dose applied” value in [7] is reported as 2.6%. In [3], the “patient ratings of efficacy versus placebo” value is “superior efficacy”.

`Cc1ccc(Cl)c(Nc2ccccc2C(=O)O)c1Cl` [meclofenamate]: the “COX-1 / COX-2 isoform selectivity of inhibition” value in data set [1] was “inhibit both COX-1 and COX-2 equally”.

In the case of `CS(=O)(=O)c1ccc(C2=C(c3ccccc3)C(=O)OC2)cc1` [rofecoxib], the “COX-1 / COX-2 isoform selectivity of inhibition” value in data set [1] is “highly selective and potent inhibitors of COX-2”.

Turning to `O=C(Oc1ccccc1C(=O)O)c1ccccc1O` [salsalate], in data set [8], the inhibition of prostaglandins result was “only weakly inhibit prostaglandins”.

As for magnesium choline trisalicylate, in [8], the inhibition of prostaglandins result is listed as “only weakly inhibit prostaglandins”.
